Results from article PMC3748009, “Novel Small-Molecule AMP-Activated Protein Kinase Allosteric Activator with Beneficial Effects in db/db Mice” (PLoS ONE, 2013).

Assays:
[1] = molecular target: T1, Recombinant human protein phosphatase-2Cα (PP2Cα) (Homo sapiens, UniProt P35813); experiment: PP2Cα activity with pNPP as substrate; format: biochemical; conditions: varying concentrations of ZLN024
T1 construct: purchased Abcam (Cambridge, UK)
T1 sequence (P35813 1-382): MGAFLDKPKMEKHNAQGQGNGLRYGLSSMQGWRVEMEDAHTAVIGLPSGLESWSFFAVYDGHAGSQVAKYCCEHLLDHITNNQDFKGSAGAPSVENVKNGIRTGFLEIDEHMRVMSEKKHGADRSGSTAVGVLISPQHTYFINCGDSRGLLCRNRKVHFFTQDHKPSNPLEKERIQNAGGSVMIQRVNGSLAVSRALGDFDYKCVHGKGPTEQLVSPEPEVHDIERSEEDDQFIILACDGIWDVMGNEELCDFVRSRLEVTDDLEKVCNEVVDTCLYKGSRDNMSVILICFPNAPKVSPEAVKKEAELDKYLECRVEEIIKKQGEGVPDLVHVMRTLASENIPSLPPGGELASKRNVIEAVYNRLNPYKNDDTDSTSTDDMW
Description: Recombinant human protein phosphatase-2Cα (PP2Cα) was obtained from Abcam (Cambridge, UK). PP2Cα activity was measured using pNPP as a substrate. The activity was measured in a SpectraMAX 340 plate reader at 37°C and […] for 120 sec. The assay was carried out in a 96-well plate in a final volume of 100 µl containing 50 mmol/l Tris-HCl, pH 7.6, 2 mmol/l DTT, 10 mmol/l MnCl2 and 10 mmol/l pNPP; the PP2Cα enzyme concentration was 400nmol/l.

rat primary hepatocytes [2] = experiment: AMPK and ACC phosphorylation in rat primary hepatocytes; format: cell-based; conditions: 3 hr
Source text: (§1) These assays were described previously, [25].

L6 myotubes [3] = experiment: Adenine nucleotide measurement (ADP/ATP ratio) in L6 myotubes; format: cell-based; conditions: various concentrations, 3 hr, vs DMSO
Source text: as §1

rat primary hepatocytes [4] = experiment: ADP/ATP ratio in rat primary hepatocytes; format: cell-based; conditions: 3 hr
Source text: as §1

C57BKS db/db mice = experiment: 5-week chronic study in db/db mice; format: in vivo, mouse
Source text: db/db (Jackson Laboratory, BarHarbor, ME, USA) mice were bred at the Shanghai Institute of Materia Medica (Chinese Academy of Sciences, Shanghai, People's Republic of China).The animals were maintained under a 12 hr light-dark cycle with free access to water and food. Animal experiments were approved by the Animal Care and Use Committee, Shanghai Institute of Materia Medica. At 8 weeks of age, male db/db mice were randomly assigned to the various treatment groups by body weight and glucose levels (n = 6-8). The treatment groups for the 5-week chronic study were as follows: vehicle (0.5% methylcellulose), ZLN024 (15 mg/kg) and metformin (250 mg/kg). The treatments were orally administered once daily. The body weights and food intake were measured daily. After 5 weeks of treatment, the mice were killed after a final dose, and the tissues were collected for further analysis. This assay was described previously. For details on primer sequences, see Legend for Table S1. These assays were described previously, [25].

L6 myotubes [5] = experiment: Fatty acid (palmitate) oxidation in L6 myotubes; format: cell-based; conditions: 4 hr treatment
Description: The assay was initiated by adding [9,10-^3H(N)]-palmitic acid (PerkinElmer, Waltham, MA, USA) to a final concentration of 250 µmol/l and 5.55×10^4 Bq per well in DMEM. After incubation with the compound for 4 hr in differentiated L6 myotubes, sample from each well was added to charcoal slurry for centrifugation and then the radioactivity was measured.

human AMPK α1(1–312) = molecular target: T2, human AMPK α1(1–312) (Homo sapiens, UniProt Q13131); experiment: SPA, constitutively active kinase domain; format: biochemical; conditions: various concentrations
T2 construct: the constitutively active kinase domain (KD) α1(1–312) in SPA assay; made in house
Description: (§2) Before the SPA assay, 200 nmol/l recombinant AMPK protein (α1β1γ1, α2β1γ1, α1β2γ1, α2β2γ1, α1(1–394), α1(1–335), α1(1–312)) was constructed, expressed, purified and fully phosphorylated as described previously. The SPA reactions were performed in 96-well plates in a final volume of 50 µl containing 20 mmol/l Tris-HCl, pH 7.5, 5 mmol/l MgCl2, 1 mmol/l DTT, 2 µmol/l biotin-SAMS, 2 µmol/l ATP and 7.4×10^3 Bq/well [γ-^33P]ATP. The reactions were initiated by the addition of 50 nmol/l recombinant AMPK protein to the reaction solutions, followed by incubation at 30°C for 2 hr. The reactions were then terminated by the addition of 40 µl of stop solution containing 80 µg streptavidin-coated SPA beads per well, 50 mmol/l EDTA and 0.1% Triton X-100 in PBS, pH 7.5, followed by incubation for 1 hr. Finally, 160 µl of suspension solution containing 2.4 mol/l CsCl, 50 mmol/l EDTA and 0.1% Triton X-100 in PBS, pH 7.5, was added to the reaction solution to suspend the SPA beads completely. The SPA signals were measured in a Wallac Microbeta plate counter (PerkinElmer, Waltham, MA, USA) 30 min later.

AMPK α1β1γ1 = AMPK α1β1γ1 (Homo sapiens, UniProt P54619+Q13131+Q9Y478); experiment: Scintillation proximity assay (SPA), AMPK activation; format: biochemical; design: made in house
Description: as §2

recombinant AMPK α1β1γ1 = recombinant AMPK α1β1γ1 (Homo sapiens, UniProt Q13131); experiment: as above; format: biochemical; design: made in house
Description: as §2

[6] = ZLN024 15 mg/kg/day by gavage, 5 weeks

recombinant AMPK α1β1γ1, sequence (Q13131 10-559 limits assumed): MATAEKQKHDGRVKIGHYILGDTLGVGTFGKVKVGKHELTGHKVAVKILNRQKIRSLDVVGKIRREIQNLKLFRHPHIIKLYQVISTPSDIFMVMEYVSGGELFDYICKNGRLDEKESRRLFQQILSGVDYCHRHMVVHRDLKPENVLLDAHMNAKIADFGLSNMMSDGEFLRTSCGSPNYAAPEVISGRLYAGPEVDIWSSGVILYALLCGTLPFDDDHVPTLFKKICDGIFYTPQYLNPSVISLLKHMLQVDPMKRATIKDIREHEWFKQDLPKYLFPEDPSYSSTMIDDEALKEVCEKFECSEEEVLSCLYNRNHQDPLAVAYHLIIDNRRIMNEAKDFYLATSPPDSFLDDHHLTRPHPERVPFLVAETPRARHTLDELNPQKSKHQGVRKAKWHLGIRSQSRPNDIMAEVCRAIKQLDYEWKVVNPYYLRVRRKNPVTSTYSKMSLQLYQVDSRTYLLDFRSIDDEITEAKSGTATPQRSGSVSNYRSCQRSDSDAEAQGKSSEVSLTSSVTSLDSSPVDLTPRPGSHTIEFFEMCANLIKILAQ
recombinant AMPK α1β1γ1, sequence (Q9Y478 whole entry partner): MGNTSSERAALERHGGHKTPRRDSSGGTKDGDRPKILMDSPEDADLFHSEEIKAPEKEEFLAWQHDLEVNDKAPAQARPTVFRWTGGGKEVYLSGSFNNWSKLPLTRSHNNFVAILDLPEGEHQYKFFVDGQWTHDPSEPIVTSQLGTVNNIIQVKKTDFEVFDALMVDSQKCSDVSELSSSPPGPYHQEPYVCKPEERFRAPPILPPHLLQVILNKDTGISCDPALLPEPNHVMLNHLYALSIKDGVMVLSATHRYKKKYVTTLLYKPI
recombinant AMPK α1β1γ1, sequence (P54619 whole entry partner): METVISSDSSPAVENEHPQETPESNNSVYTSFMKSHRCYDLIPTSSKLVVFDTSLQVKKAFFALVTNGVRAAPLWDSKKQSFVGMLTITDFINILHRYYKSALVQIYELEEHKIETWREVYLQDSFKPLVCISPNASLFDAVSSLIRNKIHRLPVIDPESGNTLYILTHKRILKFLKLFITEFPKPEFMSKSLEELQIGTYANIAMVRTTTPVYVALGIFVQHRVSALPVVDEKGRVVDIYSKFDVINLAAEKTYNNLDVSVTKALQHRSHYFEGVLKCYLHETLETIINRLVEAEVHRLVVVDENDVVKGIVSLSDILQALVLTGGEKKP
AMPK α1β1γ1, sequence (Q13131 10-559 limits assumed): as the sequence (Q13131 10-559 limits assumed) above
AMPK α1β1γ1, sequence (Q9Y478 whole entry partner): as the sequence (Q9Y478 whole entry partner) above
AMPK α1β1γ1, sequence (P54619 whole entry partner): as the sequence (P54619 whole entry partner) above
T2 sequence (Q13131 10-321): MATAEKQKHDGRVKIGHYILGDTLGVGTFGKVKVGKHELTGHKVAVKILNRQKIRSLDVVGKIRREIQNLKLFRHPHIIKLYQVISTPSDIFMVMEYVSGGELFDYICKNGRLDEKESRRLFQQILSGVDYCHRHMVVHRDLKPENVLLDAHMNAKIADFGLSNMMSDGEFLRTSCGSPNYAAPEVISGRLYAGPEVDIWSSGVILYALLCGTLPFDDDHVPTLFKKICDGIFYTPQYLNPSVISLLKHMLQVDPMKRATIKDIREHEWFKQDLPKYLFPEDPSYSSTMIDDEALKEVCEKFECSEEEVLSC

effect on PP2Cα activity [1]: no significant inhibition
effect on activity of constitutively active kinase domain α1(1–312) (human AMPK α1(1–312)): did not induce significant changes
EC50 (AMPK α1β1γ1): 420 nM
activation of α1β1γ1 activity (recombinant AMPK α1β1γ1): 1.5 fold
SMILES: Cc1ccc(OCCSc2ncccn2)c(Br)c1 [ZLN024]
phosphorylation of ACC (rat primary hepatocytes [2]): obviously increased
phosphorylation of AMPK (rat primary hepatocytes [2]): slightly activated
ADP/ATP ratio (L6 myotubes [3]): not affected
ADP/ATP ratio (rat primary hepatocytes [4]): not affected
ACC phosphorylation in abdominal muscle and liver tissue (C57BKS db/db mice; 15 mg/kg/day, 5 weeks): increased
AMPK phosphorylation in abdominal muscle and liver tissue (C57BKS db/db mice; 15 mg/kg/day, 5 weeks): not affected
body weight compared with the vehicle group (C57BKS db/db mice; [6]): no significant alteration
food intake compared with the vehicle group (C57BKS db/db mice; [6]): no significant alteration
reduction of fasting blood glucose (C57BKS db/db mice; ZLN024 15 mg/kg/day, 4 weeks, fasted 6 hr, not significant with ANOVA): 15%
abdominal muscle expression of fatty acid oxidation genes CPT-1, MCAD and LCAD (C57BKS db/db mice; ZLN024 15 mg/kg/day, 5 weeks): significantly upregulated
abdominal muscle expression of mitochondrial biogenesis genes PGC-1α, cyto-c and ATPase (C57BKS db/db mice; ZLN024 15 mg/kg/day, 5 weeks): upregulated
decrease of liver total cholesterol levels (C57BKS db/db mice; ZLN024 15 mg/kg/day, 5 weeks): 20%
liver expression of PEPCK (C57BKS db/db mice; ZLN024 15 mg/kg/day, 5 weeks): remained unchanged
liver expression of anabolic genes FAS, mtGPAT and G6Pase (C57BKS db/db mice; ZLN024 15 mg/kg/day, 5 weeks): significantly reduced
liver expression of catabolic genes CPT1, LCAD, PDK4 and AOX (C57BKS db/db mice; ZLN024 15 mg/kg/day, 5 weeks): mildly increased
liver/body weight reduction vs vehicle (C57BKS db/db mice; ZLN024 15 mg/kg/day, 5 weeks): 9%
reduction of liver triacylglycerol levels (C57BKS db/db mice; ZLN024 15 mg/kg/day, 5 weeks): approximately 45%
liver/body weight (wt/wt) (C57BKS db/db mice; ZLN024 15 mg/kg/day, 5 weeks (vehicle 5.3%)): 4.8%
reduction in glucose tolerance AUC (C57BKS db/db mice; ZLN024 15 mg/kg/day, after 4 weeks, i.p. glucose load 1.5 g/kg): approximately 15%
stimulation of palmitate oxidation (L6 myotubes [5]): 40%
